Results taken from BindingDB's records for doi:10.1021/acsmedchemlett.7b00140 (Pfizer, 2017).

Target: Small conductance calcium-activated potassium channel protein 2, KCNN2 (Homo sapiens) (UniProt Q9H2S1)
Assay: Binding affinity to SK2 (unknown origin)

Chain of Small conductance calcium-activated potassium channel protein 2, KCNN2 (Homo sapiens) (Q9H2S1 whole entry, looked up): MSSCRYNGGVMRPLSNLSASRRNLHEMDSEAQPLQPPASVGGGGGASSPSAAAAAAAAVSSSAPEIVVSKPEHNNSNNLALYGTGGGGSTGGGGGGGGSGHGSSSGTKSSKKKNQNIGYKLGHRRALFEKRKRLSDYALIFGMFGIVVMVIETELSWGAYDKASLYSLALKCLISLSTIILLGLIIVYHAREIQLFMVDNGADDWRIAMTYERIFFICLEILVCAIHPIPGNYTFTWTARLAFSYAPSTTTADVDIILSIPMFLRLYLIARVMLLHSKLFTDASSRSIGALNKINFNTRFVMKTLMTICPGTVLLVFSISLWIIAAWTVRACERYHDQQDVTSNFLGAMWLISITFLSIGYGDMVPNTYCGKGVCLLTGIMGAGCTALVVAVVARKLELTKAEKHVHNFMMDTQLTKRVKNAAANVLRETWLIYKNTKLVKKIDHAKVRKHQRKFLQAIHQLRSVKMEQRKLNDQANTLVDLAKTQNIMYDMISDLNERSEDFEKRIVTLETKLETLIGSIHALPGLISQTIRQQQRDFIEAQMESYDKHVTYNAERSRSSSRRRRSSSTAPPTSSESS

EC50 [µM] | SMILES
> 10 | N#Cc1ccc(-c2n[nH]c3cc(OC(F)(F)F)ccc23)cc1
> 10 | FC(F)(F)c1ccc2c(Nc3ccc(Cl)nc3)n[nH]c2c1
